Reference: US20090232866A1, “Oligopeptides as coating material for medical products” (priority 2003, published 2009)
*: point of attachment. CH2Cl = ClC*

Tested on: coronary arteries of pigs
Assay: Balloon angioplasty and stent implantation in pig coronary arteries, IVUS assessment of neointimal proliferation after 4 weeks
Assay type: in vivo, Domestic pigs
Conditions: local administration via perfusion balloon, 4 weeks after balloon angioplasty and stent implantation, 7 pigs per group

## Ac-Tyr-Val-Ala-Asp-chloromethylketone (Ac-YVAD-CH2Cl) [Ac-YVAD-CMK]
Fraction of control value
  reduction of maximum plaque area in comparison with the negative control group: approximately ⅓
  reduction of plaque volume in comparison with the negative control group: approximately ⅙
Percent of control value
  reduction of the stenotisized area in comparison with the negative control group: approximately 40%
